Test results: publication PMC4113814, “Bioactive Cembrane Derivatives from the Indian Ocean Soft Coral, Sinularia kavarattiensis” (Marine Drugs, 2014)
Values after ≈ are worked out from the molar mass of the structure shown.

Legend:
IL-1β = IL-1β release in supernatants of LPS-treated primary microglial cells (ELISA); type: cell-based, Wistar rats; details: 72 h; for IL-1β release: LPS-treated; for IC50: Rattus norvegicus, inhibition of LPS-induced cytokine release, read-out: IL-1β IC50
Protocol: (§1) Primary microglial cell cultures were prepared from brains of newborn Wistar rats. Ethics approval for the experiments was granted by the EBIOTEC Review Board (Valter Lombardi, Iván Carrera and Lucía Fernández-Novoa; Project Identification Code: Sinularia Project October 2013; approved 30 October 2013). The neocortex of one-day-old postnatal rats was aseptically dissected out, and the meninges and blood vessels were carefully removed. Following cutting in a medium containing 20% horse serum, the suspension was filtered through a […] and transferred as a single cell suspension to culture dishes, using 5.0 mL of medium per dish. The cultures were incubated at 37 °C in an atmosphere containing 5% CO2. The culture medium consisted of Minimum Essential Medium Eagle, supplemented with L-glutamine, amino acids, vitamins, penicillin, gentamicin, sodium bicarbonate and 20% heat-inactivated horse serum. The medium was changed twice a week. After 1 week, the concentration of horse serum was reduced to 10%. After sixteen days in culture, cells were treated with 1 μg/mL of lipopolysaccharide (LPS). […] Positive controls were treated only with LPS, while negative controls were treated with complete medium. After 72 h of incubation, cells were counted, and 2.5 mL of the supernatants were collected from each well and frozen at −40 °C for cytokine analyses. All experiments were carried out twice.
(§2) The supernatants obtained from cell cultures were analyzed for TNF-α, IL-1β, IL-4, IL-6, IL-8, IL-10 and IL-18 using commercially available ELISA kits following the manufacturers’ instructions. All samples were assayed in duplicate, and equivocal results were repeated. The cytokine concentration was calculated from a standard curve of the corresponding recombinant cytokine.
(§3) The cytotoxicity of the compounds was measured by the colorimetric methyl thiazol tetrazolium (MTT) assay and scored as a percentage of the absorbance reduction of treated cultures versus untreated control cultures. Primary microglial cell cultures were seeded into 96-well microplates at 10^4 cells per well and allowed to grow for 24 h. […] The compounds were serially diluted in complete culture medium with two-fold dilutions (100, 50, 25, 12.5, 6.25, 3.12 and 1.56 μg/mL for in vitro cytotoxicity; 12.5, 6.25, 3.12, 1.56, 0.78 and 0.39 μg/mL for cytokine release). Different concentrations of the compounds were added to each well, and Tamoxifen was used as a positive control, with concentrations ranging from 50 to 1.56 μg/mL. Plates were incubated at 37 °C for 72 h under 5% CO2 atmosphere. Then, the 50 μL of MTT-PBS solution in culture medium were added to each well. The plates were further incubated for 4 h under the same conditions. The medium was then removed and replaced with 200 μL of DMSO to solubilize the MTT formazan product. The solutions were shaken for 20 min, and the absorbance was measured at 570 nm. […] Each value represents the mean of triplicate determinations. The IC50 values were calculated from the compound concentration-response curves.

IL-8 = IL-8 release in supernatants of LPS-treated primary microglial cells (ELISA); type: cell-based, Wistar rats; details: 72 h; for IL-8 release: LPS-treated; for IC50: Rattus norvegicus, inhibition of LPS-induced cytokine release, read-out: IL-8 IC50
Protocol: as §1, §2, §3

IL-18 = IL-18 release in supernatants of LPS-treated primary microglial cells (ELISA); type: cell-based, Wistar rats; details: 72 h; for IL-18 release: LPS-treated; for IC50: Rattus norvegicus, inhibition of LPS-induced cytokine release, read-out: IL-18 IC50
Protocol: as §1, §2
as §3, with “The compounds were serially diluted in complete culture medium with two-fold dilutions (100, 50, 25, 12.5, 6.25, 3.12 and 1.56 μg/mL for in vitro cytotoxicity; 12.5, 6.25, 3.12, 1.56, 0.78 and 0.39 μg/mL for cytokine release).” left out

IL-4 = IL-4 release in supernatants of LPS-treated primary microglial cells (ELISA); type: cell-based, Wistar rats; details: 72 h; for IL-4 release: LPS-treated; for IC50: Rattus norvegicus, inhibition of LPS-induced cytokine release, read-out: IL-4 IC50
Protocol: as §1, §2
as §3, with “The compounds were serially diluted in complete culture medium with two-fold dilutions (100, 50, 25, 12.5, 6.25, 3.12 and 1.56 μg/mL for in vitro cytotoxicity; 12.5, 6.25, 3.12, 1.56, 0.78 and 0.39 μg/mL for cytokine release).” left out

IL-10 = IL-10 release in supernatants of LPS-treated primary microglial cells (ELISA); type: cell-based, Wistar rats; details: 72 h; for IL-10 release: LPS-treated; for IC50: Rattus norvegicus, inhibition of LPS-induced cytokine release, read-out: IL-10 IC50
Protocol: as §1, §2, §3

CHIKV replicon = assay: microbe, parasite or virus in culture; details: Chikungunya virus, 48 h, read-out: inhibition of the CHIKV replicon (Rluc marker levels)

`C=C(C)[C@@H]1C/C=C2\C(=O)O[C@@H](C[C@]3(C)CC(=O)[C@H](CC(=O)C1)O3)[C@@H]2O` [Compound 1, 5-epi-sinuleptolide] gave an IL-1β release (IL-1β; C1: 1.0 μg/mL) of 1.04 ± 0.08 pg/mL, an IL-1β release (IL-1β; C2: 2.5 μg/mL) of 1.09 ± 0.1 pg/mL and an IL-1β release (IL-1β; C3: 5.0 μg/mL) of 1.08 ± 0.05 pg/mL. The IC50 (IL-1β) was > 12.5 µg/mL, the IL-8 release (IL-8; C1: 1.0 μg/mL) was 256 ± 12 pg/mL and the IL-8 release (IL-8; C2: 2.5 μg/mL) was 239 ± 5 pg/mL. The IL-8 release (IL-8; C3: 5.0 μg/mL) was 241 ± 7 pg/mL, the IC50 (IL-8) was > 12.5 µg/mL and the IL-18 release (IL-18; C1: 1.0 μg/mL) was 319 ± 8.1 pg/mL. The IL-18 release (IL-18; C2: 2.5 μg/mL) was 318 ± 7.5 pg/mL, the IL-18 release (IL-18; C3: 5.0 μg/mL) was 315 ± 8.1 pg/mL and the IC50 (IL-18) was > 12.5 µg/mL. The IL-4 release (IL-4; C1: 1.0 μg/mL) was 1.9 ± 0.9 pg/mL, the IL-4 release (IL-4; C2: 2.5 μg/mL) was 2.1 ± 0.8 pg/mL and the IL-4 release (IL-4; C3: 5.0 μg/mL) was 1.9 ± 0.4 pg/mL. For the same molecule, the IC50 (IL-4) was > 12.5 µg/mL, the IL-10 release (IL-10; C1: 1.0 μg/mL) was 7.6 ± 1.6 pg/mL and the IL-10 release (IL-10; C2: 2.5 μg/mL) was 8.2 ± 1.8 pg/mL. The IL-10 release (IL-10; C3: 5.0 μg/mL) was 8.7 ± 2.1 pg/mL, the IC50 (IL-10) was > 12.5 µg/mL and the inhibition at 100 µM (CHIKV replicon) was > 60%.
Work on `C=C(C)[C@@H]1C/C=C2\C(=O)O[C@@H](C[C@]3(C)CC(=O)[C@@H](CC(=O)C1)O3)[C@@H]2O` [Compound 2, sinuleptolide] yielded an IL-1β release (IL-1β; C1: 1.0 μg/mL) of 1.08 ± 0.02 pg/mL, an IL-1β release (IL-1β; C2: 2.5 μg/mL) of 0.07 ± 0.04 pg/mL and an IL-1β release (IL-1β; C3: 5.0 μg/mL) of 0.08 ± 0.06 pg/mL. The IC50 (IL-1β) was 0.5 µg/mL (≈ 1.44 µM), the IL-8 release (IL-8; C1: 1.0 μg/mL) was 249 ± 13 pg/mL and the IL-8 release (IL-8; C2: 2.5 μg/mL) was 123 ± 11 pg/mL. For the same molecule, the IL-8 release (IL-8; C3: 5.0 μg/mL) was 108 ± 9 pg/mL, the IC50 (IL-8) was 2.3 µg/mL (≈ 6.6 µM) and the IL-18 release (IL-18; C1: 1.0 μg/mL) was 326 ± 4.9 pg/mL. It also gave an IL-18 release (IL-18; C2: 2.5 μg/mL) of 187 ± 14 pg/mL, an IL-18 release (IL-18; C3: 5.0 μg/mL) of 155 ± 11 pg/mL and an IC50 (IL-18) of 2.9 µg/mL (≈ 8.32 µM). The IL-4 release (IL-4; C1: 1.0 μg/mL) was 2.1 ± 0.9 pg/mL, the IL-4 release (IL-4; C2: 2.5 μg/mL) was 15.5 ± 2.3 pg/mL and the IL-4 release (IL-4; C3: 5.0 μg/mL) was 18.4 ± 1.8 pg/mL. It also gave an IC50 (IL-4) of 0.5 µg/mL (≈ 1.44 µM), an IL-10 release (IL-10; C1: 1.0 μg/mL) of 7.9 ± 3.4 pg/mL and an IL-10 release (IL-10; C2: 2.5 μg/mL) of 17.4 ± 2.3 pg/mL. The IL-10 release (IL-10; C3: 5.0 μg/mL) was 18.5 ± 1.9 pg/mL, the IC50 (IL-10) was 0.5 µg/mL (≈ 1.44 µM) and the inhibition at 100 µM (CHIKV replicon) was > 60%.
`C=C(C)C1CCC23OC2C(CC2(C)CC(=O)C(CC(=O)C1)O2)OC3=O` (stereo not drawn) [Compound 3, scabrolide D] gave an IL-1β release (IL-1β; C1: 1.0 μg/mL) of 1.1 ± 0.05 pg/mL, an IL-1β release (IL-1β; C2: 2.5 μg/mL) of 1.3 ± 0.06 pg/mL and an IL-1β release (IL-1β; C3: 5.0 μg/mL) of 1.2 ± 0.05 pg/mL. For the same molecule, the IC50 (IL-1β) was > 12.5 µg/mL, the IL-8 release (IL-8; C1: 1.0 μg/mL) was 247 ± 8 pg/mL and the IL-8 release (IL-8; C2: 2.5 μg/mL) was 237 ± 4 pg/mL. The IL-8 release (IL-8; C3: 5.0 μg/mL) was 244 ± 11 pg/mL, the IC50 (IL-8) was > 12.5 µg/mL and the IL-18 release (IL-18; C1: 1.0 μg/mL) was 312 ± 8.2 pg/mL. The IL-18 release (IL-18; C2: 2.5 μg/mL) was 321 ± 7.8 pg/mL, the IL-18 release (IL-18; C3: 5.0 μg/mL) was 318 ± 7.6 pg/mL and the IC50 (IL-18) was > 12.5 µg/mL. It also gave an IL-4 release (IL-4; C1: 1.0 μg/mL) of 1.5 ± 0.9 pg/mL, an IL-4 release (IL-4; C2: 2.5 μg/mL) of 1.6 ± 0.8 pg/mL and an IL-4 release (IL-4; C3: 5.0 μg/mL) of 1.7 ± 0.5 pg/mL. The IC50 (IL-4) was > 12.5 µg/mL, the IL-10 release (IL-10; C1: 1.0 μg/mL) was 7.5 ± 1.4 pg/mL and the IL-10 release (IL-10; C2: 2.5 μg/mL) was 6.8 ± 1.5 pg/mL. For the same molecule, the IL-10 release (IL-10; C3: 5.0 μg/mL) was 6.9 ± 1.5 pg/mL, the IC50 (IL-10) was > 12.5 µg/mL and the inhibition at 100 µM (CHIKV replicon) was 44%.
`C=C(C)[C@@H]1CC(=O)[C@H]2[C@H](C1)[C@@H]1C(=O)O[C@@H]3C[C@@]4(C)O[C@H]2C(=O)[C@@H]4[C@H]13` [Compound 6, ineleganolide] gave an IL-1β release (IL-1β; C1: 1.0 μg/mL) of 1.07 ± 0.07 pg/mL, an IL-1β release (IL-1β; C2: 2.5 μg/mL) of 1.1 ± 0.05 pg/mL and an IL-1β release (IL-1β; C3: 5.0 μg/mL) of 1.09 ± 0.02 pg/mL. The IC50 (IL-1β) was > 12.5 µg/mL, the IL-8 release (IL-8; C1: 1.0 μg/mL) was 247 ± 8 pg/mL and the IL-8 release (IL-8; C2: 2.5 μg/mL) was 247 ± 8 pg/mL. For the same molecule, the IL-8 release (IL-8; C3: 5.0 μg/mL) was 247 ± 8 pg/mL, the IC50 (IL-8) was > 12.5 µg/mL and the IL-18 release (IL-18; C1: 1.0 μg/mL) was 312 ± 8.2 pg/mL. The IL-18 release (IL-18; C2: 2.5 μg/mL) was 312 ± 8.2 pg/mL, the IL-18 release (IL-18; C3: 5.0 μg/mL) was 312 ± 8.2 pg/mL and the IC50 (IL-18) was > 12.5 µg/mL. For the same molecule, the IL-4 release (IL-4; C1: 1.0 μg/mL) was 1.8 ± 0.6 pg/mL, the IL-4 release (IL-4; C2: 2.5 μg/mL) was 1.9 ± 0.6 pg/mL and the IL-4 release (IL-4; C3: 5.0 μg/mL) was 1.9 ± 0.9 pg/mL. The IC50 (IL-4) was > 12.5 µg/mL, the IL-10 release (IL-10; C1: 1.0 μg/mL) was 8.5 ± 3.2 pg/mL and the IL-10 release (IL-10; C2: 2.5 μg/mL) was 7.8 ± 2.2 pg/mL. For the same molecule, the IL-10 release (IL-10; C3: 5.0 μg/mL) was 7.5 ± 2.1 pg/mL, the IC50 (IL-10) was > 12.5 µg/mL and the inhibition at 100 µM (CHIKV replicon) was 0.5 to 63%.
